Test results reported in ChEMBL document CHEMBL3769367, “Orexin Receptor Antagonists: New Therapeutic Agents for the Treatment of Insomnia” (J Med Chem, 2016).

Assays:
[1] = biological target: T1, Orexin receptor type 2 (Homo sapiens) (UniProt O43614)
T1 sequence (whole entry): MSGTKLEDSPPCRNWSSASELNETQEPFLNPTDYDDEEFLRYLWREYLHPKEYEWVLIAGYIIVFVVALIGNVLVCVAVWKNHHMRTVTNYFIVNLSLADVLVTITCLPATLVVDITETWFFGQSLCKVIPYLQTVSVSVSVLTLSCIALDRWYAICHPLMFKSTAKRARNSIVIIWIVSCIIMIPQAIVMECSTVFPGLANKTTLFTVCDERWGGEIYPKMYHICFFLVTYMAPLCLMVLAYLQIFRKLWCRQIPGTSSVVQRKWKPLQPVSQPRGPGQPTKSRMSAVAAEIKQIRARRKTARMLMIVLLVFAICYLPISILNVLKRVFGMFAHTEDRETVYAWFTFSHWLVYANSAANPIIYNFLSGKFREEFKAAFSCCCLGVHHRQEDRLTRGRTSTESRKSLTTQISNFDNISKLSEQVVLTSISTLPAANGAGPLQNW

Orexin receptor type 2 [2] = biological target: T2, Orexin receptor type 2 (Homo sapiens, UniProt O43614); assay: Binding affinity to OX2R (unknown origin)
T2 sequence (O43614 whole entry): T1 sequence (whole entry)

[3] = biological target: T3, Orexin/Hypocretin receptor type 1 (Homo sapiens, UniProt O43613); assay: Binding affinity to OX1R (unknown origin)
T3 sequence (O43613 whole entry): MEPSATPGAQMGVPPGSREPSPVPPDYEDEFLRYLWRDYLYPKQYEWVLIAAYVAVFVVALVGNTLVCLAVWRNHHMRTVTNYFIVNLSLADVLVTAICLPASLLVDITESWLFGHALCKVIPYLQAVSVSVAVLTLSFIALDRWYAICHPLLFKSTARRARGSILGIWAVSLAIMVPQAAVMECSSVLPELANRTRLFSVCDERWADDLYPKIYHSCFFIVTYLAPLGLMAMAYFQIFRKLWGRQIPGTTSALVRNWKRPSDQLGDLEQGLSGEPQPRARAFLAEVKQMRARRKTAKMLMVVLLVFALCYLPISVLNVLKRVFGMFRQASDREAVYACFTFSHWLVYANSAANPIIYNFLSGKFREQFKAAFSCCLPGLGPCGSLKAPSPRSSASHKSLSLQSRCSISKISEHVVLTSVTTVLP

[4] = biological target: T3, Orexin/Hypocretin receptor type 1; assay: Antagonist activity at OX1R (unknown origin)
Orexin receptor type 2 [5] = biological target: T2, Orexin receptor type 2; assay: Antagonist activity at OX2R (unknown origin)
Homo sapiens = organism: Homo sapiens; assay: Selectivity ratio of IC50 for OX2R (unknown origin) to IC50 for OX1R (unknown origin)
[6] = biological target: T3, Orexin/Hypocretin receptor type 1; assay: Antagonist activity at human OX1R expressed in CHO cells assessed as inhibition of orexin-A-induced intracellular calcium release by FLIPR assay; assay type: functional, cell-based

Molecule CC1(C)OC[C@H](NC(=O)Nc2ccc(Br)cc2Br)[C@H](c2ccccc2)O1 has a pKb [1] of 8.3.
Cc1ccc(-n2nccn2)c(C(=O)N2C[C@@H](COc3ccc(F)c(C)c3)CC[C@H]2C)c1 (racemic) gave a Ki (Orexin receptor type 2 [2]) of 22 nM and a Ki [3] of 34 nM.
For COc1cccc(OC)c1C(=O)N1CCCN(c2nc3ccc(Cl)cc3s2)CC1, the IC50 [4] was 630 nM.
With COc1ccc(CC2c3cc(OC(C)C)c(OC)cc3CCN2CC(=O)NCc2ccccc2)cc1OC (configuration not stated) the IC50 (Orexin receptor type 2 [5]) was over 10000 nM and the IC50 [4] was 17 nM.
COc1ccc(CC2c3cc(OC)c(OC)cc3CCN2CC(=O)NCc2ccccc2)cc1OC (configuration not stated) showed a Ratio IC50 (Homo sapiens) of 68.
In the case of Cc1ccc(-n2nccn2)c(C(=O)N2C[C@H](COc3ccc(F)c(C)c3)CC[C@H]2C)c1 (racemic), the Ki (Orexin receptor type 2 [2]) is reported as 0.1 nM and the Ki [3] is reported as 0.3 nM.
Molecule CSc1cccc(NC(=O)[C@@H]2CCCN2S(=O)(=O)c2ccc(Br)s2)c1 has an IC50 [6] of 21 nM.
CCN(CCN(C)c1nc2ccccc2o1)C(=O)c1cc(C)ccc1-n1nccn1 gave an IC50 (Orexin receptor type 2 [5]) of 18 nM and an IC50 [4] of 13 nM.
